Experimental data taken from patent US4960867A, “Leiurus quinquestriatus venom peptide inhibitor of calcium activated potassium channels” (priority 1989, dated 1990).

Test system: high conductance Ca2+-activated K+ channel
Type: biochemical
Method: Single Ca^2+ -activated K^+ channel currents were monitored in excised membrane patches derived from either bovine aortic smooth muscle cells or GH3 anterior pituitary cells.
Channel recordings were made by conventional patch clamp procedures as previously described by Hamil, O. P., et al. Using a micromanipulator, a glass micropipette (fabricated from soda lime glass, 5-10 m.OMEGA. resistance; containing 150 mM potassium chloride, 2 mM magnesium chloride, 1 5 μM calcium chloride, 10 mM HEPES, pH 7.3) was positioned on the surface of the cell, slight negative pressure was applied and the formation of a high resistance seal between the plasma membrane and pipette was monitored. Seals of 10-50×10^9 .OMEGA. were required for subsequent measurements.
After attaining such a seal, the cell membrane was ruptured by application of a rapid negative pressure pulse and the electrode was pulled away from the cell to form an outside-facing-out excised patch at the tip of the electrode. The presence of Ca^2+ -activated K^+ channels was then determined, and such activity could be recorded in excised patches for up to two hours. Recordings were made at a holding potential of 0 to +20 mV in a bathing medium consisting of 150 mM sodium chloride, 10 mM HEPES, pH 7.3. […]

## CC[N+](CC)(CC)CC [tetraethylammonium ion]
  block of channel activity: rapid reversible block
